Structures can show the parent of a compound that is named as a salt.
Experiments:
human β2-adrenoreceptor = target: T1, human β2-adrenoreceptor (Homo sapiens, UniProt P07550); experiment: cAMP radioimmunoassay in CHO cells expressing human β2-adrenoreceptor; type: cell-based; details: maximal response relative to standard reference agonist (isoproterenol = 100%), na = not active, read-out: h-β2 cAMP Max %
T1 construct: expressed in transfected cells; host or cells: CHO cells
Method: (§1) Chinese Hamster Ovary (CHO) cells expressing either human β1-, β2-, or β3-adrenoreceptor subtypes were used. Varying concentrations of each compound were added to the incubated cells and the cyclic AMP (cAMP) generated within the cells was extracted, and determined using a radioimmunoassay. Effective concentration-50 (EC-50) values were measured as the concentration (in nanomolar) of each drug that gave 50% of its maximum cAMP response. The maximal response (Max %) of each tested drug is expressed as a ratio of the drug response to that of a standard reference agonist (e.g., isoproterenol (Max %=100%)). If a compound has no activity for increasing cAMP at the highest concentration used, it is designated as “not active” or “na” in Table I below, which summarizes the testing results. See Konkar et al., Journal of Pharmacology and Experimental Therapeutics 291:875-883 (1999).

human β1-adrenoreceptor = target: T2, human β1-adrenoreceptor (Homo sapiens, UniProt P08588); experiment: cAMP radioimmunoassay in CHO cells expressing human β1-adrenoreceptor; type: cell-based; details: maximal response relative to standard reference agonist (isoproterenol = 100%), na = not active, read-out: h-β1 cAMP Max %
T2 construct: expressed in transfected cells; host or cells: CHO cells
T2 sequence (P08588 whole entry): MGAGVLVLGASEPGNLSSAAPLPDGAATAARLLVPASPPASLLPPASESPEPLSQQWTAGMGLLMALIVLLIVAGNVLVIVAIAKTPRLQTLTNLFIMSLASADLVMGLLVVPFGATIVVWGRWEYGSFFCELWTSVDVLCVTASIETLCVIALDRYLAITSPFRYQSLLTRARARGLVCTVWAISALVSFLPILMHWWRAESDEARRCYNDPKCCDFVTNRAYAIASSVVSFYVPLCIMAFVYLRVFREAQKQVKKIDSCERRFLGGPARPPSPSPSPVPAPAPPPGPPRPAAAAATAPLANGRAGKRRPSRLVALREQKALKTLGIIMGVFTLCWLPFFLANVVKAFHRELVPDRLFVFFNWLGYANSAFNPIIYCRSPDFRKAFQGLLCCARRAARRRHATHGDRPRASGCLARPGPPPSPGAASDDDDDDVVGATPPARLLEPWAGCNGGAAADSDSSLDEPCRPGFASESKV
Method: as §1

human β3-adrenoreceptor = target: T3, human β3-adrenoreceptor (Homo sapiens, UniProt P13945); experiment: cAMP radioimmunoassay in CHO cells expressing human β3-adrenoreceptor; type: cell-based; details: for EC50: concentration giving 50% of the drug's maximum cAMP response, na = not active at highest concentration used, read-out: h-β3 cAMP EC50; for Emax: maximal response relative to standard reference agonist (isoproterenol = 100%), na = not active, read-out: h-β3 cAMP Max %
T3 construct: expressed in transfected cells; host or cells: CHO cells
T3 sequence (P13945 whole entry): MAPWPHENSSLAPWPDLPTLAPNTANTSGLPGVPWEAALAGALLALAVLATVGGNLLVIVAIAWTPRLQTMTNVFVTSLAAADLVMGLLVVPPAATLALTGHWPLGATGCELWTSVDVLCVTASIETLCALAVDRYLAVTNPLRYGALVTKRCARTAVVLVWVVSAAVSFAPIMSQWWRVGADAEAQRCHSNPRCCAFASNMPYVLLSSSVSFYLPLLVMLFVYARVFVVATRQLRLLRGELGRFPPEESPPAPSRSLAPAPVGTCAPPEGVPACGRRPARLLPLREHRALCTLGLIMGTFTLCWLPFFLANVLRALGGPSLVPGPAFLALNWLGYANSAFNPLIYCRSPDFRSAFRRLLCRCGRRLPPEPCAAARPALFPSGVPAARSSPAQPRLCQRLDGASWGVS
Method: as §1

T1 sequence (P07550 whole entry): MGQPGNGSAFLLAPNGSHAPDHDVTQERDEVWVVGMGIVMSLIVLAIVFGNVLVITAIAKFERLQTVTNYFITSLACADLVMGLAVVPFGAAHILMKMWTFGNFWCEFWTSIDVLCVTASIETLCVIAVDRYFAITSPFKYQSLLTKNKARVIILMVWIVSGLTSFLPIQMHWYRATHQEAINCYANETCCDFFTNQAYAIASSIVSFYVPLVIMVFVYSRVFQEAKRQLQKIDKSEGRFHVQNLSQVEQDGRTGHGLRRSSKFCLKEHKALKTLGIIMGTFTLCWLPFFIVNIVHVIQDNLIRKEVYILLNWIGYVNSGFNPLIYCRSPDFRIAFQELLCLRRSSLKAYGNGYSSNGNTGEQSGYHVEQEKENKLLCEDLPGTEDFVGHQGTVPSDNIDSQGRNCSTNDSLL

Row | Compound | Emax (human β2-adrenoreceptor) | Emax (human β1-adrenoreceptor) | EC50 (human β3-adrenoreceptor) | Emax (human β3-adrenoreceptor) | melting point
1 | COc1ccc(S(=O)(=O)Nc2cc3c(cc2O)CCNC3Cc2cc(Br)c(OC)c(Br)c2)cc1 (centres unmarked) (as salt: hydrochloride) [Example 4, N-[1-(3,5-dibromo-4-methoxy-benzyl)-6-hydroxy-1,2,3,4-tetrahydro-isoquinolin-7-yl]-4-methoxy-benzenesulfonamide hydrochloride] | – | – | – | – | 226 to 228 °C (dec.)
2 | CS(=O)(=O)Nc1cc2c(cc1N)CCNC2Cc1ccc(Cl)c(Cl)c1 (centres unmarked) | 10.8% | 12.6% | – | 2.24% | –
3 | COc1c(Br)cc(CC2NCCc3cc(O)c(NS(=O)(=O)Cc4ccccc4)cc32)cc1Br (centres unmarked) | – | – | 20.9 nM | 92.2% | –
4 | COc1c(Br)cc(CC2NCCc3cc(O)c(NS(=O)(=O)/C=C/c4ccccc4)cc32)cc1Br (centres unmarked) | – | – | 23.1 nM | 96.6% | –
5 | CCOC(=O)Nc1cc2c(cc1NS(C)(=O)=O)CCNC2Cc1cc(Br)c(OC)c(Br)c1 (centres unmarked) | 17.2% | 11% | – | 8.7% | –
6 | CS(=O)(=O)Nc1cc2c(cc1O)CCNC2Cc1ccc(F)c(F)c1 (centres unmarked) | – | – | 24.4 nM | 78.3% | –
7 | COc1c(Br)cc(CC2NCCc3cc(O)c(NS(=O)(=O)c4ccccc4)cc32)cc1Br (centres unmarked) | 21.4% | 13.1% | 35.3 nM | 88.2% | –
8 | COc1c(Br)cc(CC2NCCc3cc(O)c(NS(=O)(=O)c4ccc(C(F)(F)F)cc4)cc32)cc1Br (centres unmarked) | 16.6% | 13% | 29.2 nM | 83.3% | –
9 | COc1ccc(CC2NCCc3cc(O)c(NS(C)(=O)=O)cc32)cc1 (centres unmarked) | – | – | – | 24% | –
10 | CS(=O)(=O)Nc1cc2c(cc1O)CCNC2Cc1cc(F)cc(F)c1 (centres unmarked) | – | – | 38.8 nM | 66.6% | –
11 | COc1c(Br)cc(CC2c3cc(NS(C)(=O)=O)c(O)cc3CCN2C)cc1Br (centres unmarked) | 24.1% | 16.2% | – | 39.3% | –
12 | COc1ccc(CC2NCCc3cc(O)c(NS(C)(=O)=O)cc32)cc1OC (centres unmarked) | 15.4% | 10.2% | 118 nM | 76.9% | –
13 | COc1c(Br)cc(CC2NCCc3cc(O)c(NS(=O)(=O)c4ccc(OC(F)(F)F)cc4)cc32)cc1Br (centres unmarked) | – | – | 80.3 nM | 65.7% | –
14 | COc1c(Br)cc(CC2NCCc3cc(O)c(N(S(=O)(=O)c4ccc(F)cc4)S(=O)(=O)c4ccc(F)cc4)cc32)cc1Br (centres unmarked) | 5.8% | 12.1% | – | 8.7% | –

Continued by falling EC50 (human β3-adrenoreceptor), values first:

Row | Emax (human β2-adrenoreceptor) | Emax (human β1-adrenoreceptor) | EC50 (human β3-adrenoreceptor) | Emax (human β3-adrenoreceptor) | melting point | Compound
15 | – | – | 9.91 nM | 92% | – | CS(=O)(=O)Nc1cc2c(cc1O)CCNC2Cc1ccc(Cl)c(Cl)c1 (centres unmarked)
16 | 8% | 18.1% | 8.46 nM | 97.6% | – | COc1c(Br)cc(CC2NCCc3cc(O)c(NS(=O)(=O)c4ccc(C)cc4)cc32)cc1Br (centres unmarked)
17 | – | – | 8.09 nM | 88.3% | – | COc1ccc(S(=O)(=O)Nc2cc3c(cc2O)CCNC3Cc2cc(Br)c(OC)c(Br)c2)cc1 (centres unmarked)
18 | 13.5% | 8.6% | 5.22 nM | 90.4% | – | COc1c(Br)cc(CC2NCCc3cc(O)c(NS(=O)(=O)c4ccc(F)cc4)cc32)cc1Br (centres unmarked)
19 | 5% | 5% | 3 nM | 98% | – | COc1c(I)cc(CC2NCCc3cc(O)c(NS(C)(=O)=O)cc32)cc1I (centres unmarked)
20 | 8% | 5% | 2.9 nM | 91% | – | COc1c(I)cc(CC2NCCc3cc(O)c(NS(=O)(=O)c4ccc(C)cc4)cc32)cc1I (centres unmarked)
21 | – | 8.4% | 1.51 nM | 102% | – | CCS(=O)(=O)Nc1cc2c(cc1O)CCNC2Cc1cc(Br)c(OC)c(Br)c1 (centres unmarked)

Reference: patent US6596734B1, “Tetrahydroisoquinoline compounds for use as β3-adrenoreceptor agonists” (Molecular Design International, Inc., priority 2001, dated 2003)
